# Measurements: patent US5077292A, “(2-imidazolin-2-ylamino) tetrahydroquinoxalines and methods for using same” (priority 1989, dated 1991)
# How the values were obtained:
# intraocular pressure = experiment: effect on intraocular pressure, topical unilateral administration to rabbit eye; format: in vivo, New Zealand white rabbit; settings: 0.1% (W/V), treated rabbit eye
# Procedure: The three (3) tetrahydroquinoxaline derivatives produced in accordance with Examples 1 to 3 were tested to determine what effect, if any, these materials have on intraocular pressure.
# Each of these materials was dissolved in distilled water at a concentration of 0.1% (W/V). Each of these solutions was administered topically and unilaterally to one eye of a drug-naive, unanesthetized New Zealand white rabbit in a single 50 micro liter drop. The contralateral eye received an equal volume of saline prior to determining the intraocular pressure after the mixture was administered. Also, approximately 10 micro liters of 0.5% (W/V) proparacaine (topical anesthetic) was applied to the corneas of each of the rabbits before determining intraocular pressure. As a control test, six (6) other drug-naive, unanesthetized New Zealand white rabbits were treated and tested as described above except that no tetrahydroquinoxaline derivative was included in the solutions administered to the eyes.
# The intraocular pressure was determined in both eyes of each rabbit before and after the solutions were administered. Such intraocular pressure determinations were made in the conventional manner using conventional equipment.
# [1] = test system: Alpha 1 Adrenergic Receptors; experiment: Rabbit Aorta: Alpha 1 Adrenergic Receptors; format: cell-based, albino rabbit; settings: rabbit aorta rings, 37° C., field stimulated; n = number of test runs
# Procedure: The tetrahydroquinoxalines produced in Examples 1 to 3 were tested for activity using the following in vitro methods.
# Rabbit Aorta: Alpha 1 Adrenergic Receptors
# Thoracic aorta and saphenous vein specimens were obtained from albino rabbits that were killed by CO2 inhalation. The aorta and saphenous vein were each cut into 3 mm rings. Tissues were placed in Krebs-Hensleit solution of the following composition (millimolar): NaCl 119; KCl 4.7; MgSO4 1.5, KH2 PO4 1.2; CaCl2 2.5; NaHCO3 25 and glucose 11.0. The solution also contained cocaine (0.1 millimolar) to block neuronal uptake and EDTA (30 micromolar) and ascorbic acid (5 micromolar) to prevent oxidation of the tetrahydroquinoxaline being tested. Tissues were hung in 10 ml organ baths and tension was measured via Grass FT03 force-displacement transducers. Resting tension was 1 g and 2 g for the saphenous vein and aorta, respectively. The solution was gassed with 95% O2 and 5% CO2 and maintained at 37° C. Tissues were allowed to equilibrate for 2 hours before stimulation and the cumulative addition of the tetrahydroquinoxaline being treated was started. Tissue stimulation was performed as with the rabbit vas deferens, described above. The contractions of the tissue were recorded isometrically as for the rabbit vas deferens assay. Cumulative concentration response curves were obtained and the EC50 valve developed for each tetrahydroquinoxaline tested in a manner similar to that for the rabbit vas deferens assay.
# dmPGE2-induced diarrhea = experiment: anti-diarrheal effects in cecectomized rats, dmPGE2-induced diarrhea; format: in vivo; settings: p.o.
# Procedure: (§1) The tetrahydroquinoxaline produced in Example 1 was tested for anti-diarrheal effects and blood pressure effects using the following method.
# (§2) Cecectomies were performed in unfasted rats as follows. Under anesthesia with methohexital (60 mg/kg. i.p.), a laparotyphlectomy was initiated with a 2 cm midventral incision. The cecum was lifted from the abdominal cavity and exteriorized onto a gauze drape. The cecal apex was freed by severing the avascular area of the mesocecum. Next, a ligature of #1 silk suture was positioned so as to occulude the cecum and its vasculature without compromising ileo-colonic patency. After the ligature was secured and ileo-colonic patency confirmed, the cecum was resected, and the remaining exposed cecal mucosa was washed with saline and cauterized. The intestinal segment was then returned to the abdominal cavity, and the abdominal muscle facia closed with interrupted 4/0 chromic-gut sutures. The dermal incision was closed with 9 mm stainless steel wound clips that were removed approximately 1 week post surgery. An arterial line was also implanted into the abdominal aorta and vena cava via the femoral vessels, in a manner similar to that described in Example 10. Immediately following the surgical procedure, animals were returned to their cages and allowed free access to food and water. Animals were permitted at least 48 hour recovery period before being used in experiments.
# (§3) The cecectomized rats were put into individual wire-bottomed cages placed over sheets of clean paper, and deprived of food and water for the duration of the assay. The MAP was monitored, as described in Example 10, throughout the assay. Rats were given a 2 hour acclimatization period prior to the start of the assay in order to eliminate sporadic episodes of anxiety-induced defecation. During this period they were observed also for consistent occurrences of pelleted feces; an animal producing other than a pelleted stool was disqualified from the study.
# (§4) Diarrhea was induced with oral administration of 16,16-dimethyl prostaglandin E2 (dmPGE2) in 3.5% EtOH. The tetrahydro-quinoxaline was administered by gavage after the onset of diarrheal episodes. The cage papers were removed and examined at 30 minute intervals for dmPGE2 -induced diarrhea. Fecal output was recorded at each interval and fecal consistency is assigned a numerical score in each experimental group as follows: 1=normal pelleted stool; 2=soft-formed stools; 3=water stool and/or diarrhea. The fecal output index (FOI) is defined as the summation of the number of defecation episodes and their ranked consistency score within an observation period.
# [2] = test system: mean arterial blood pressure; experiment: blood pressure effects (MAP) in anti-diarrheal test; format: in vivo, rats; settings: p.o.
# Procedure: as §1, §2, §3, §4
smiles,measurement,setting,value
"Brc1c(NC2=NCCN2)ccc2c1NCCN2 [Example 1, 5-Bromo-6-(2-imidazolin-2-ylamino)-1,2,3,4-tetrahydroquinoxaline]",effect on intraocular pressure in the treated eye (in words),intraocular pressure,effective to reduce intraocular pressure in the treated rabbit eye
same,initial effect on intraocular pressure in the treated eye (in words),intraocular pressure; initial effect,raising the intraocular pressure
same,EC50,[1],1130 ± 207 nM
same,Percent Reduction in FOI versus dmPGE2 Control,dmPGE2-induced diarrhea; 0.01 mg/kg,17%
same,Percent Reduction in FOI versus dmPGE2 Control,dmPGE2-induced diarrhea; 0.03 mg/kg,60%
same,Percent Reduction in FOI versus dmPGE2 Control,dmPGE2-induced diarrhea; 0.10 mg/kg,57%
same,Percent Reduction in FOI versus dmPGE2 Control,dmPGE2-induced diarrhea; 0.30 mg/kg,76%
same,Percent Reduction in FOI versus dmPGE2 Control,dmPGE2-induced diarrhea; 1.00 mg/kg,98%
same,Percent Reduction in FOI versus dmPGE2 Control,dmPGE2-induced diarrhea; 3.00 mg/kg,98%
same,Percent Reduction in FOI versus dmPGE2 Control,dmPGE2-induced diarrhea; 10.00 mg/kg,100%
same,anti-diarrheal effects (in words),"dmPGE2-induced diarrhea; cecectomized rats, dmPGE2-induced diarrhea",substantial anti-diarrheal effects
same,Increase in MAP,[2]; 0.01 mg/kg,0 mm Hg
same,Increase in MAP,[2]; 0.03 mg/kg,0 mm Hg
same,Increase in MAP,[2]; 0.10 mg/kg,0 mm Hg
same,Increase in MAP,[2]; 0.30 mg/kg,0 mm Hg
same,Increase in MAP,[2]; 1.00 mg/kg,0 mm Hg
same,Increase in MAP,[2]; 3.00 mg/kg,10 mm Hg
same,Increase in MAP,[2]; 10.00 mg/kg,25 mm Hg
same,effect in blood pressure accompanying anti-diarrheal effects (in words),[2]; cecectomized rats,no or a relatively minimal effect in blood pressure
